From PubChem BioAssay AID262 (DTP/NCI, 2004) come the findings set out here.

Values joined by “and” are separate entries in the source; they are usually repeats but may differ in a detail not shown here. Equal entries are not always repeated. Starred links: 1 amine or outer side, 2 acyl side, 3 side chain; linkers in the order of their positions; H or OH if unused. Positions of bridges follow the written chain, without caps; N, C: chain ends. Non-standard residues stand in square brackets, D forms with d. Residues, ends and D or L forms follow the SMILES beside them. Chains are numbered I, II in the order given. Actinocin(9to1) = Cc1c2oc3c(C)ccc(C(=O)[*:1])c3nc-2c(C(=O)[*:2])c(N)c1=O; aThr = C[C@H](O)[C@H](N)C(=O)O; NMeV = CN[C@H](C(=O)O)C(C)C; Sar = CNCC(=O)O

This assay deals with LX-1 lung xenograft sc, nude mice, tumor weight. Kind of assay: NCI In Vivo Anticancer Drug Screen. Data for tumor model Human Lung LX-1 Xenograft (subcutaneous) in NU/NU Swiss (nude) mice. As to conditions: endpoint: optimum tumor weight change, schedule: Q04DX003 (ip), higher = larger tumour. The method, then:
The antitumor activity of compounds was measured in mice bearing transplantable tumors. Survival or tumor size were measured and the results are expressed as the measurement made in the treated group (T) divided by the measurement made in the vehicle treated control group (C). The tumor model used in this assay is Human Lung LX-1 Xenograft (subcutaneous) in NU/NU Swiss (nude) mice

The mark [1] stands for this setting: dose: 15.0 mg/kg/injection, vehicle: saline.
The mark [2] stands for this setting: dose: 30.0 mg/kg/injection, vehicle: saline.
[3] abbreviates: dose: 25.0 mg/kg/injection, vehicle: Klucel (hydroxypropylcellulose) (HPC).
Setting [4] is: dose: 50.0 mg/kg/injection, vehicle: Klucel (hydroxypropylcellulose) (HPC).
Setting [5] is: dose: 100.0 mg/kg/injection, vehicle: saline with Tween-80.
Setting [6] is: dose: 50.0 mg/kg/injection, vehicle: saline.
[7] abbreviates: dose: 100.0 mg/kg/injection, vehicle: saline.
The mark [8] stands for this setting: dose: 200.0 mg/kg/injection, vehicle: saline.
The mark [9] stands for this setting: dose: 12.5 mg/kg/injection, vehicle: Klucel (hydroxypropylcellulose) (HPC).

As to `Cc1c(N)nc(C(CC(N)=O)NCC(N)C(N)=O)nc1C(=O)NC(C(=O)NC(C)C(O)C(C)C(=O)NC(C(=O)NCCc1nc(-c2nc(C(=O)NCCCNC(C)c3ccccc3)cs2)cs1)C(C)O)C(OC1OC(CO)C(O)C(O)C1OC1OC(CO)C(O)C(OC(N)=O)C1O)c1cnc[nH]1` (stereo not drawn), the T/C by setting is: under setting [1], 35 % of control; under setting [2], 35 % of control.
For the compound `CCC1=C[C@H]2CN(CCc3c([nH]c4ccccc34)[C@@](C(=O)OC)(c3cc4c(cc3OC)N(C)[C@H]3[C@@](O)(C(=O)NC)[C@H](OC(C)=O)[C@]5(CC)C=CCN6CC[C@]43[C@@H]65)C2)C1`, the T/C runs as follows: (dose: 0.25 mg/kg/injection, vehicle: water) 69 % of control; (dose: 0.5 mg/kg/injection, vehicle: water) 40 % of control; (dose: 1.0 mg/kg/injection, vehicle: water) 98 % of control.
As to `CC(C)=CCNc1ncnc2c1ncn2C1OC(CO)C(O)C1O` (stereo not drawn), the T/C (dose: 200.0 mg/kg/injection, vehicle: suspension in saline) was 150 % of control.
In the case of `Cc1c(N)nc([C@H](CC(N)=O)NC[C@H](N)C(N)=O)nc1C(=O)N[C@H](C(=O)N[C@H](C)[C@@H](O)CC(=O)N[C@H](C(=O)NC(O[C@@H]1O[C@@H](C)[C@@H](N)[C@@H](O)[C@H]1O)C(O)c1nc(-c2nc(C(=O)NCCCCN)cs2)cs1)[C@@H](C)O)[C@@H](O[C@@H]1O[C@@H](CO)[C@@H](O)[C@H](O)[C@@H]1O[C@H]1O[C@H](CO)[C@@H](O)[C@H](OC(N)=O)[C@@H]1O)c1c[nH]cn1` (stereo partly drawn), the T/C (dose: 2.0 mg/kg/injection, vehicle: saline) was 77 % of control.
On to `O=C1c2c(O)ccc(O)c2C(=O)c2c(NCCNCCO)ccc(NCCNCCO)c21`, for which the T/C (dose: 0.31 mg/kg/injection, vehicle: water) is 52 % of control.
`CCN(C)N=Nc1ccc(C(N)=O)cc1`: the T/C runs as follows: under setting [3], 67 % of control; under setting [4], 9 % of control; (dose: 200.0 mg/kg/injection, vehicle: Klucel (hydroxypropylcellulose) (HPC)) -60 % of control.
In the case of `Cc1c2oc3c(C)ccc(C(=O)N[C@@H]4C(=O)N[C@H](C(C)C)C(=O)N5CCC[C@H]5C(=O)N(C)CC(=O)N(C)[C@@H](C(C)C)C(=O)O[C@H]4C)c3nc-2c(C(=O)N[C@@H]2C(=O)N[C@H](C(C)C)C(=O)N3CCC[C@H]3C(=O)N(C)CC(=O)N(C)[C@@H](C(C)C)C(=O)O[C@H]2C)c(N)c1=O` (I: [aThr][dV]P[Sar][NMeV] / II: [aThr][dV]P[Sar][NMeV]; ester I:1-I:C, II:1-II:C; linker I:N-II:N via Actinocin(9to1)), the T/C is, setting by setting: (dose: 150.0 micrograms/kg/injection, vehicle: saline) 122 % of control; (dose: 300.0 micrograms/kg/injection, vehicle: saline) 106 % of control.
With `OC(CBr)C(O)C(O)C(O)CBr` (stereo not drawn), the T/C is 98 % of control under setting [3] and 66 % of control under setting [4].
With `ClCC[N+]12CC[N+](CCCl)(CC1)C2`, the T/C is 81 % of control (dose: 50.0 mg/kg/injection, vehicle: water); 103 % of control under setting [5]; 106 % of control (dose: 100.0 mg/kg/injection, vehicle: water); 72 % of control (dose: 200.0 mg/kg/injection, vehicle: saline with Tween-80); 59 % of control (dose: 200.0 mg/kg/injection, vehicle: water); 74 % of control (dose: 400.0 mg/kg/injection, vehicle: saline with Tween-80). The T/C (dose: 400.0 mg/kg/injection, vehicle: water) was 48 % of control.
Take `COc1cccc2c1C(=O)c1c(O)c3c(c(O)c1C2=O)C[C@@](O)(/C(C)=N\O)C[C@@H]3OC1CC(N)C(O)C(C)O1` (stereo partly drawn): where the note is “dose: 12.5 mg/kg/injection, vehicle: saline”, the T/C was 55 % of control.
As to `O=P1(NCCCl)OCCCN1CCCl` (stereo not drawn), the T/C runs as follows: (dose: 6.25 mg/kg/injection, vehicle: saline) 26 % of control; (dose: 25.0 mg/kg/injection, vehicle: saline) 54 % of control; under setting [6], 39 % of control.
In the case of `Nc1cc2[nH]cnc2c(=O)[nH]1`, the T/C runs as follows: under setting [6], 96 % of control; under setting [7], 123 % of control; under setting [8], 112 % of control.
As for `CCCC(=O)OCc1cc(=O)n(C)c2c3c4c(cc12)c(C)cc(=O)n4CO3`, the T/C under setting [4] was 116 % of control.
`CN(C)N=Nc1cccc(C(N)=O)c1`: the T/C is, setting by setting: under setting [9], 98 % of control; under setting [3], 36 % of control.
For the compound `C[n+]1c(-c2cccc3ccccc23)c2cc(N)ccc2c2ccccc21`, the T/C runs as follows: (dose: 0.75 mg/kg/injection, vehicle: saline) 61 % of control; (dose: 1.5 mg/kg/injection, vehicle: saline) 57 % of control.
With `O=S(CCCl)CCCl`, the T/C under setting [4] was 61 % of control.
As to `COc1cccc2c1C(=O)c1c(O)c3c(c(O)c1C2=O)C[C@@](O)(C(=O)CO)C[C@@H]3OC1CC(N)CC(C)O1` (stereo partly drawn), the T/C was 67 % of control (dose: 0.4 mg/kg/injection, vehicle: water); 109 % of control (dose: 0.79 mg/kg/injection, vehicle: water); 99 % of control (dose: 1.57 mg/kg/injection, vehicle: water); 90 % of control (dose: 3.13 mg/kg/injection, vehicle: water).
For the compound `CO[C@H]1C[C@](C)(O)Cc2cc3c(c(O)c21)C(=O)c1c(O)cc2c(c1C3=O)O[C@@H]1O[C@@]2(C)[C@H](O)[C@@H](N(C)C)[C@@H]1O`, the T/C is 53 % of control (dose: 6.25 mg/kg/injection, vehicle: other) and 114 % of control (dose: 12.5 mg/kg/injection, vehicle: other).
Turning to `N=c1nc2n(cc1F)[C@@H]1O[C@H](CO)[C@@H](O)[C@@H]1O2`, the T/C reads like this: under setting [7], 67 % of control; under setting [8], 59 % of control; (dose: 400.0 mg/kg/injection, vehicle: saline) 78 % of control; (dose: 800.0 mg/kg/injection, vehicle: saline) 72 % of control.
Turning to `CSc1cc(=O)n2c3ccccc3c3ccnc1c32`, the T/C by setting is: (dose: 20.0 mg/kg/injection, vehicle: saline with Tween-80) 92 % of control; (dose: 40.0 mg/kg/injection, vehicle: saline with Tween-80) 71 % of control; (dose: 80.0 mg/kg/injection, vehicle: saline with Tween-80) 93 % of control; (dose: 160.0 mg/kg/injection, vehicle: saline with Tween-80) 92 % of control.
In the case of `O=[N+]([O-])/C=C\c1ccc2c(c1)OCO2`, the T/C is 89 % of control under setting [9]; 63 % of control and 88 % of control under setting [3]; 64 % of control and 73 % of control under setting [4]; 103 % of control (dose: 100.0 mg/kg/injection, vehicle: Klucel (hydroxypropylcellulose) (HPC)).
On to `CCN(CC)CCCC(C)Nc1c2ccc(Cl)cc2nc2ccc(OC)cc12` (stereo not drawn), for which the T/C was 119 % of control (dose: 25.0 mg/kg/injection, vehicle: saline with Tween-80); 99 % of control (dose: 50.0 mg/kg/injection, vehicle: saline with Tween-80); 108 % of control under setting [5].
For the compound `CCCCNCCCNCCCNC(=O)c1csc(-c2csc(CCNC(=O)C(NC(=O)C(C)C(O)C(C)NC(=O)C(NC(=O)c3nc(C(CC(N)=O)NCC(N)C(N)=O)nc(N)c3C)C(OC3OC(CO)C(O)C(O)C3OC3OC(CO)C(O)C(OC(N)=O)C3O)c3cnc[nH]3)C(C)O)n2)n1` (stereo not drawn), the T/C runs as follows: (dose: 8.0 mg/kg/injection, vehicle: saline) 56 % of control; under setting [1], 19 % of control; (dose: 16.0 mg/kg/injection, vehicle: saline) 30 % of control; under setting [2], 20 % of control; (dose: 32.0 mg/kg/injection, vehicle: saline) 26 % of control; (dose: 64.0 mg/kg/injection, vehicle: saline) 19 % of control. In addition, the T/C (dose: 128.0 mg/kg/injection, vehicle: saline) is 1 % of control.
